Measurements reported in US20070043118A1, “Method of treating a subject suffering from degenerative disc disease using a nitric oxide synthase inhibitor” (Discogen, LLC, priority 2005, published 2007).

What was measured:
[1] = system: patients with chronic intractable lower back pain and positive discography; assay: Biochemical injection treatment in human subjects (intradiscal injection; disability questionnaire and visual analogue pain scale); format: in vivo; conditions: intradiscal injection of 1 to 2 cc disc solution per involved disc
Description: Thirty patients with chronic intractable lower back pain and positive discography would participate in the study. These would be adult patients with chronic lower back pain who have been unresponsive or responded poorly to multiple previous methods of treatment, including physical therapy, multiple analgesics, injection therapy, laminectomies, fusions and intradiscal electrothermal annuloplasty (IDET) procedures. These patients would have positive discography at one or more lumbar levels and concordant pain provocation combined with morphologic disc abnormalities.
Using sterile techniques and United States Pharmacopeia-grade pharmaceuticals solutions containing the NOS inhibitors are prepared, specifically, one solution is prepared for each of GED, L-NAME, and L-NMMA. The “GED disc solution” consists of 0.3 mg/kg to 10 mg/kg GED by subject weight; 1.0 to 100 micromolar by concentration. The “L-NAME disc solution” consists of 1.0 mg/kg L-NAME by subject weight; 5.0 to 100 micromolar by concentration. The “L-NMMA disc solution” consists of 1.0 mg/kg L0NMA by subject weight; 5.0 to 100 micromolar by concentration. These concentrations are derived based on solubility and tolerance characteristics of the constituents. These are mixed with 33% nonionic contrast and 33% of 50% dextrose at the time of injection. A total of 1 to 2 cc of each solution is injected into each involved disc. All solutions are tested on separate patients. Injection promptly terminates if there is any leakage of contrast into the epidural space. Zygapophyseal joint injections are performed after fluroscopic confirmation of correct needle placement using intra-articular contrast and are performed at the same levels as the disc injections.
To avoid patient discomfort, the first series of injections are performed at the time of diagnostic discography. An intradiscal injection of 1 to 2 cc is used at each involved disc level. The levels are determined by discography. This is combined with injection of the zygapophyseal joints at the painful disc level(s) with the modified solution mixture as described above. […]

[2] = system: disc tissue obtained from human subjects; conditions: in vitro; cited from earlier work

Row | SMILES | treatment outcome: pain and disability before and after treatment (disability questionnaire 0-24, visual analogue pain scale 0-10) [1] | level of NO present in disc tissue [2]
1 | N=C(N)NCCSSCCNC(=N)N [GED, guanidinoethyldisulfide] | effective in treating the patients and providing symptomatic relief | –
2 | COC(=O)[C@@H](N)CCCNC(=N)N[N+](=O)[O-] [L-NAME, nitro-L-arginine methyl ester] | effective in treating the patients and providing symptomatic relief | –
3 | [H]/N=C(\NC)NCCC[C@H](N)C(=O)O [L-NMMA, N-monomethyl-L-arginine] | effective in treating the patients and providing symptomatic relief | reduce the level of NO present
